# Laboratory results as given in patent US20070025920A1, “Stable Pharmaceutical Solution Formulations for Pressurized Metered Dose Inhalers” (priority 2004, published 2007).
# Like-named read-outs stand apart in the source and are kept apart here.
# How the values were obtained:
# [1] = 4 μg per actuation, HCl-stabilised HFA 134a/ethanol solution; stored upright at 5° C.; after nine months; mean of 2 cans; cited from earlier work
# [2] = Stability of the TA 2005 + budesonide HFA 134a composition with phosphoric acid, 40° C. and 75% relative humidity; assay type: physicochemical; settings: TA 2005 1 μg + budesonide 200 μg/actuation, phosphoric acid 85% 0.0032 or 0.0064% w/w, 0.15% w/w water, three months
# Procedure: Two compositions were tested containing TA 2005 and budesonide as active ingredients and two different concentrations of phosphoric acid.
# Volume of the valve: 63 μl; strength: TA 2005 1 μg+budesonide 200 μg/actuation; no. of actuations: 120 (34 overfilling doses).
# The two active ingredients in the compositions were stable after three months storage at 40° C. and 75% relative humidity, giving residual percent amounts of at least 95% TA 2005 and about 100% of Budesonide.
# [3] = Stability study of the 1 μg/63 μl formulation with 15.2 M phosphoric acid, upright and inverted cans at 40° C. and 75% relative humidity; assay type: physicochemical; settings: 15% w/w ethanol, HFA 134a, 15.2 M phosphoric acid 0.001 to 0.0027% w/w, six months
# Procedure: The formulation of Table 4 (120 actuations/canister, overage of 30 actuations) was filled in aluminum canisters having the internal surface coated with Teflon and fitted with commercial valves having a 63 μl metering chamber. A stability study was carried out by storing the formulation in upright and inverted cans at 40° C. and 75% relative humidity.
# [4] = 3.5 μg/50 μl, cited from earlier work
# [5] = Stability study of 1 μg/63 μl formulations with 0.1M hydrochloric acid, upright cans at 40° C. and 75% relative humidity; assay type: physicochemical; settings: 15 w/w ethanol, HFA 134a, three months
# Procedure: Two aluminum canisters having the internal surface coated with Teflon and fitted with commercial valves having a 63 μl metering chamber were filled with the following formulations shown in Table 3. A stability study was carried out by storing the formulations in upright cans at 40° C. and 75% relative humidity.
smiles,measurement,setting,value
"COc1ccc(C[C@@H](C)NC[C@H](O)c2ccc(O)c3[nH]c(=O)ccc23)cc1.Cl [TA 2005, 8-hydroxy-5-[(1R)-1-hydroxy-2-[[(1R)-2-(4-methoxyphenyl)-1-methylethyl]amino]ethyl]-2(1H)-quinolinone hydrochloride]",TA 2005 assay,[1],higher than 95%
same,residual percent amount,[2],at least 95%
same,residual percent amount of TA 2005,[3],up to 98%
same,"TA 2005 content, per cent nominal drug concentration","[4]; HFA 134a, 12% w/w ethanol, 1.0% w/w isopropyl myristate, 1.0 μl 0.08M HCl per can (apparent pH about 4.8), Initial",100.0 per cent
same,"TA 2005 content, per cent nominal drug concentration","[4]; HFA 134a, 12% w/w ethanol, 1.0% w/w isopropyl myristate, 1.4 μl 0.08M HCl per can (apparent pH about 3.2), Initial",100.0 per cent
same,"TA 2005 content, per cent nominal drug concentration","[4]; 1.0 μl 0.08M HCl per can, 50° C., 22 days upright",98.3 per cent
same,"TA 2005 content, per cent nominal drug concentration","[4]; 1.0 μl 0.08M HCl per can, 50° C., 83 days upright",99.4 per cent
same,"TA 2005 content, per cent nominal drug concentration","[4]; 1.4 μl 0.08M HCl per can, 50° C., 22 days upright",98.2 per cent
same,"TA 2005 content, per cent nominal drug concentration","[4]; 1.4 μl 0.08M HCl per can, 50° C., 83 days upright",98.8 per cent
same,percent amount of TA 2005,[5]; hydrochloric acid 0.1M 0.018 w/w,73%
same,percent amount of TA 2005,[5]; hydrochloric acid 0.1M 0.027 w/w,77%
